In patent US8562945B2, “Technetium- and rhenium-bis(heteroaryl) complexes and methods of use thereof” (Molecular Insight Pharmaceuticals, Inc., priority 2008, dated 2013):

Tests used:
[1] = Rat tissue distribution of 99mTc complexes of example ligands (Table 6); type: in vivo, Sprague-Dawley Rats; details: 99mTc complex
Protocol: Rat Tissue Distribution Studies. The distribution and pharmacokinetics of selected ^99mTc-SAAC complexes were evaluated in normal male Sprague Dawley rats (180-200 grams) administered via the tail vein as a bolus injection (approximately 10 μCi/rat) in a constant volume of 0.1 ml. The animals (n=5 per time point) were euthanized by asphyxiation with carbon dioxide at 5, 30, 60, and 120 min post injection. Tissues (blood, heart, lungs, liver, spleen, kidneys, adrenals, stomach, intestines (with contents), testes, skeletal muscle, bone and brain) were dissected, excised, weighed wet, and counted in an automated γ-counter (LKB Model 1282, Wallac Oy, Finland). Tissue time-radioactivity levels expressed as percent injected dose per gram of tissue (% ID/g) was determined.
^99mTc Complexes of various example ligands in Sprague-Dawley Rats.

[2] = Complex stability: 99mTc cysteine and histidine challenge experiments; type: physicochemical; details: for time stable to excess histidine and cysteine challenges: 99mTc-SAAC complex, 37° C.
Protocol: 3. Tc-99m labeling. [^99mTc(CO)3(H2O)3]^+ was heated with [8-{N,N-di(pyridyl-2-methyl)}α-(fmoc)lysine] (DpK) in 0.5 mL (1 mg/mL) of methanol at 100° C. for 30 minutes. […] Labeling yields of >50% RCY, were achievable at levels as low as 2 μg/mL.
Complex stability: ^99mTc challenge experiments. The complexes were analyzed by HPLC for stability against cysteine and histidine challenge over time.

[3] = Determination of Log P values of 99mTc-SAAC complexes; type: physicochemical; details: 99mTc complex; n-octanol / 25 mM pH=7.4 phosphate buffer
Protocol: Determination of Log P Values. The Log P values of the ^99mTc(I)-complexes were determined as follows. The ^99mTc-SAAC complexes were prepared and purified by RP-HPLC. The desired peak was collected and the sample was evaporated under a stream of nitrogen. The residue was dissolved in 25 μL of saline and placed in an equal volume of n-octanol (3 mL) and 25 mM pH=7.4 phosphate buffer (3 mL). The samples were mixed under vortex for 20 min, centrifuged at 8000 rpm for 5 min and three 100 μL aliquots were removed from both the aqueous and the organic layers for analysis on a gamma counter (Wallac 1282). Subsequently, 1 mL of the phosphate bufferTc-complex solution was removed and the process was repeated with fresh n-octanol, for a total number of six extractions to ensure full extraction of all the organic components. The partition coefficients were calculated using the equation: P=(activity concentration in n-octanol)/(activity concentration in aqueous layer). The Log P values reported were calculated from the average of the different measurements.

[4] = biological target: CA-IX (Homo sapiens (Human), UniProt Q16790); assay: Inhibition of carbonic anhydrase enzyme activity (4-nitrophenyl acetate hydrolysis), CA-IX; type: biochemical; details: purified human enzyme, pH 7.4, 25° C.
Protocol: (§1) Selective Inhibition of Carbonic Anhydrase Enzyme Activity. Compounds were tested for their ability to inhibit carbonic anhydrase isozymes II and IX in vitro. Purified human enzymes were from R&D Systems (Minneapolis, Minn.). The inhibition constants (Ki) for CA-II and CA-IX were determined by the method of Pocker and Stone. Initial rates of 4-nitrophenyl acetate hydrolysis catalyzed by the different carbonic anhydrase isozymes were measured spectrophotometrically at 400 nm. Solutions of substrate (1×10^−2 to 1×10^−6 M) were prepared in anhydrous acetonitrile. A molar extinction coefficient of 18,000 M^−1·cm^−1 was used for the 4-nitrophenolate formed by hydrolysis under the conditions of the experiment (9 mM Tris-HCl, 81 mM NaCl, pH 7.4, 25° C.). The enzyme concentrations were 100 nM for CA-IX and 30 nM for CA-II. Non-enzymatic hydrolysis rates, determined in the absence of added enzyme, were subtracted from the observed rates. […] Dilutions of inhibitor were added to enzyme solutions and preincubated for 10 min to allow for the formation of the E-I complex prior to the addition of substrate. Acetazolamide was included in all assays as positive controls.

[5] = biological target: CA-II (Homo sapiens (Human), UniProt P00918); assay: Inhibition of carbonic anhydrase enzyme activity (4-nitrophenyl acetate hydrolysis), CA-II; type: biochemical; details: purified human enzyme, pH 7.4, 25° C.
Protocol: as §1

| Compound | Blood tissue distribution ([1]; 5 min) | Blood tissue distribution ([1]; 30 min) | Blood tissue distribution ([1]; 60 min) | Blood tissue distribution ([1]; 120 min) | GI tissue distribution ([1]; 5 min) | GI tissue distribution ([1]; 30 min) | GI tissue distribution ([1]; 60 min) | GI tissue distribution ([1]; 120 min) | Kidney tissue distribution ([1]; 5 min) | Kidney tissue distribution ([1]; 30 min) | Kidney tissue distribution ([1]; 60 min) | Kidney tissue distribution ([1]; 120 min) | Liver tissue distribution ([1]; 5 min) | Liver tissue distribution ([1]; 30 min) | Liver tissue distribution ([1]; 60 min) | Liver tissue distribution ([1]; 120 min) | Sk. Muscle tissue distribution ([1]; 5 min) | Sk. Muscle tissue distribution ([1]; 30 min) | Sk. Muscle tissue distribution ([1]; 60 min) | Sk. Muscle tissue distribution ([1]; 120 min) | further results |
| --- | --- | --- | --- | --- | --- | --- | --- | --- | --- | --- | --- | --- | --- | --- | --- | --- | --- | --- | --- | --- | --- |
| N[C@@H](CCCCN(Cc1ccccn1)Cc1ccccn1)C(=O)O [DpK, [ε-{N,N-di(pyridyl-2-methyl)}α-lysine], reference compound] | 0.58 ± 0.05 % ID/g | 0.07 ± 0.01 % ID/g | 0.03 ± 0.01 % ID/g | 0.01 ± 0.00 % ID/g | 0.49 ± 0.08 % ID/g | 0.89 ± 0.07 % ID/g | 1.46 ± 0.09 % ID/g | 2.73 ± 0.57 % ID/g | 6.05 ± 1.03 % ID/g | 4.94 ± 0.11 % ID/g | 4.93 ± 0.43 % ID/g | 3.89 ± .042 % ID/g | 3.36 ± 0.44 % ID/g | 2.75 ± .011 % ID/g | 2.59 ± 0.08 % ID/g | 2.20 ± 0.06 % ID/g | 0.18 ± 0.02 % ID/g | 0.03 ± 0.00 % ID/g | 0.03 ± 0.01 % ID/g | 0.01 ± 0.00 % ID/g | degradation by HPLC after cysteine or histidine challenge ([2]; 100 mM cysteine or histidine in PBS pH 7.2, 37° C., 18 h): no degradation; time stable to excess histidine and cysteine challenges [2]: more than 18 hours; Log P [3]: −1.89 |
| N[C@@H](CCCCN(Cc1nccs1)Cc1nccs1)C(=O)O [DtK, (dithiazole)lysine] | 3.32 ± 0.82 % ID/g | 2.33 ± 0.26 % ID/g | 1.4 ± 0.07 % ID/g | 0.76 ± 0.12 % ID/g | 0.3 ± 0.15 % ID/g | 0.59 ± 0.13 % ID/g | 0.73 ± 0.29 % ID/g | 0.87 ± 0.2 % ID/g | 3.26 ± 1.04 % ID/g | 4.71 ± 0.41 % ID/g | 4.78 ± 0.14 % ID/g | 4.83 ± 0.41 % ID/g | 1.7 ± 0.42 % ID/g | 1.93 ± 0.15 % ID/g | 2.05 ± .041 % ID/g | 2.61 ± 0.31 % ID/g | 0.16 ± 0.05 % ID/g | 0.16 ± 0.01 % ID/g | 0.15 ± 0.02 % ID/g | 0.12 ± 0.01 % ID/g | time stable to excess histidine and cysteine challenges [2]: more than 18 hours; Log P [3]: −2.40 |
| [Re(CO)3][2-((pyridin-2-ylmethyl)(4-sulfamoylphenethyl)amino)acetic acid] [Compound 23-Re] | – | – | – | – | – | – | – | – | – | – | – | – | – | – | – | – | – | – | – | – | IC50 [4]: 564 nM; IC50 [5]: 652 nM |
